{"source": "PubChem BioAssay AID328", "about": "(DTP/NCI, 2004)", "test_system": "BDF1 mice, P388 leukemia ip, median survival T/C", "test": "NCI In Vivo Anticancer Drug Screen. Data for tumor model P388 Leukemia (intraperitoneal) in B6D2F1 (BDF1) mice", "details": "endpoint: median survival time, higher = longer survival", "summary_of_the_method": "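Transplantable tumour in mice; compound vs vehicle dosing; survival scored; ratio of treated to control reported.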", "key": {"[1]": {"details": "dose: 50.0 mg/kg/injection, schedule: Q04DX003 (ip), vehicle: saline with Tween-80"}, "[2]": {"details": "dose: 50.0 mg/kg/injection, schedule: Q01DX009 (ip), vehicle: saline with Tween-80"}, "[3]": {"details": "dose: 100.0 mg/kg/injection, schedule: Q01DX009 (ip), vehicle: saline with Tween-80"}, "[4]": {"details": "dose: 200.0 mg/kg/injection, schedule: Q01DX009 (ip), vehicle: saline with Tween-80"}, "[5]": {"details": "dose: 100.0 mg/kg/injection, schedule: Q01DX009 (ip), vehicle: Klucel (hydroxypropylcellulose) (HPC)"}, "[6]": {"details": "dose: 200.0 mg/kg/injection, schedule: Q01DX009 (ip), vehicle: Klucel (hydroxypropylcellulose) (HPC)"}}, "note": "Inconclusive results and toxic doses are left out.", "data": [{"smiles": "O=[N+]([O-])c1ccc(N/N=C(\\COc2ccccc2)c2ccccc2)c([N+](=O)[O-])c1", "values": [{"measurement": "T/C", "setting": "dose: 6.25 mg/kg/injection, schedule: Q01DX001 (ip), vehicle: saline with Tween-80", "value": "95 % of control"}, {"measurement": "T/C", "setting": "dose: 12.5 mg/kg/injection, schedule: Q01DX001 (ip), vehicle: saline with Tween-80", "value": "100 % of control"}, {"measurement": "T/C", "setting": "dose: 25.0 mg/kg/injection, schedule: Q01DX001 (ip), vehicle: saline with Tween-80", "value": "104 % of control"}]}, {"smiles": "OC1CC2CCC(C1)N2CCCN1c2ccccc2Sc2ccc(Cl)cc21", "note": "(configuration not stated)", "values": [{"measurement": "T/C", "setting": "dose: 25.0 mg/kg/injection, schedule: Q01DX009 (ip), vehicle: saline", "value": "104 % of control"}, {"measurement": "T/C", "setting": "dose: 50.0 mg/kg/injection, schedule: Q01DX009 (ip), vehicle: saline", "value": "91 % of control"}, {"measurement": "T/C", "setting": "dose: 100.0 mg/kg/injection, schedule: Q04DX003 (ip), vehicle: saline", "value": "90 % of control"}]}, {"smiles": "CCN(CC)CCCNC(C)CCCN(CC)CC", "note": "(configuration not stated)", "values": [{"measurement": "T/C", "setting": "dose: 50.0 mg/kg/injection, schedule: Q01DX009 (ip), vehicle: water", "value": "103 % of control"}, {"measurement": "T/C", "setting": "dose: 100.0 mg/kg/injection, schedule: Q01DX009 (ip), vehicle: water", "value": "98 % of control"}, {"measurement": "T/C", "setting": "dose: 100.0 mg/kg/injection, schedule: Q04DX003 (ip), vehicle: water", "value": "102 % of control"}, {"measurement": "T/C", "setting": "dose: 200.0 mg/kg/injection, schedule: Q04DX003 (ip), vehicle: water", "value": "100 % of control"}]}, {"smiles": "CC1CCC(NC2=NCCO2)C(C)C1", "note": "(configuration not stated)", "values": [{"measurement": "T/C", "setting": "dose: 12.5 mg/kg/injection, schedule: Q04DX003 (ip), vehicle: saline with Tween-80", "value": "95 % of control"}, {"measurement": "T/C", "setting": "dose: 25.0 mg/kg/injection, schedule: Q04DX003 (ip), vehicle: saline with Tween-80", "value": "100 % of control"}, {"measurement": "T/C", "setting": "[1]", "value": "100 % of control"}]}, {"smiles": "CN1c2ccccc2C(=O)NC1c1ccc([N+](=O)[O-])s1", "note": "(configuration not stated)", "values": [{"measurement": "T/C", "setting": "[2]", "value": "95 % of control"}, {"measurement": "T/C", "setting": "[3]", "value": "100 % of control"}, {"measurement": "T/C", "setting": "[4]", "value": "91 % of control"}]}, {"smiles": "CCCCOC(=O)C(N)Cc1ccc(OC)c(N(CCCl)CCCl)c1", "note": "(configuration not stated)", "values": [{"measurement": "T/C", "setting": "dose: 3.0 mg/kg/injection, schedule: Q04DX003 (ip), vehicle: saline", "value": "250 % of control"}, {"measurement": "T/C", "setting": "dose: 6.0 mg/kg/injection, schedule: Q04DX003 (ip), vehicle: saline", "value": "108 % of control"}]}, {"smiles": "O=C(O)CC/C(=N/OCc1cc2c(cc1Cl)OCO2)C(=O)O", "values": [{"measurement": "T/C", "setting": "dose: 100.0 mg/kg/injection, schedule: Q04DX003 (ip), vehicle: saline sonified", "value": "100 % of control"}, {"measurement": "T/C", "setting": "dose: 200.0 mg/kg/injection, schedule: Q04DX003 (ip), vehicle: saline sonified", "value": "100 % of control"}, {"measurement": "T/C", "setting": "dose: 400.0 mg/kg/injection, schedule: Q04DX003 (ip), vehicle: saline sonified", "value": "109 % of control"}]}, {"smiles": "CCC(C)C(NS(=O)(=O)c1ccc(C)cc1)C(=O)O", "note": "(configuration not stated)", "values": [{"measurement": "T/C", "setting": "dose: 50.0 mg/kg/injection, schedule: Q01DX005 (ip), vehicle: saline with Tween-80", "value": "96 % of control"}, {"measurement": "T/C", "setting": "dose: 100.0 mg/kg/injection, schedule: Q01DX005 (ip), vehicle: saline with Tween-80", "value": "102 % of control"}, {"measurement": "T/C", "setting": "dose: 200.0 mg/kg/injection, schedule: Q01DX005 (ip), vehicle: saline with Tween-80", "value": "112 % of control"}]}, {"smiles": "N=C(N)c1ccc(C(=O)Oc2ccc([N+](=O)[O-])cc2)cc1", "values": [{"measurement": "T/C", "setting": "[1]", "value": "109 % of control"}, {"measurement": "T/C", "setting": "dose: 100.0 mg/kg/injection, schedule: Q04DX003 (ip), vehicle: saline with Tween-80", "value": "109 % of control"}, {"measurement": "T/C", "setting": "dose: 200.0 mg/kg/injection, schedule: Q04DX003 (ip), vehicle: saline with Tween-80", "value": "109 % of control"}]}, {"smiles": "O=C1NN(CCO)C(=S)Nc2ccccc21", "values": [{"measurement": "T/C", "setting": "dose: 50.0 mg/kg/injection, schedule: Q01DX009 (ip), vehicle: Klucel (hydroxypropylcellulose) (HPC)", "value": "100 % of control"}, {"measurement": "T/C", "setting": "[5]", "value": "100 % of control"}, {"measurement": "T/C", "setting": "[6]", "value": "90 % of control"}]}, {"smiles": "CC1(C)Oc2cc3oc(C(=O)O)cc(=O)c3cc2-c2ccc(O)cc21", "values": [{"measurement": "T/C", "setting": "dose: 100.0 mg/kg/injection, schedule: Q04DX002 (ip), vehicle: saline with Tween-80", "value": "119 % of control"}, {"measurement": "T/C", "setting": "dose: 200.0 mg/kg/injection, schedule: Q04DX002 (ip), vehicle: saline with Tween-80", "value": "107 % of control"}, {"measurement": "T/C", "setting": "dose: 400.0 mg/kg/injection, schedule: Q04DX002 (ip), vehicle: saline with Tween-80", "value": "108 % of control"}]}, {"smiles": "Cc1nc2ccccc2n1C[c-]1[c-][c-][c-][c-]1.[Fe].[c-]1[c-][c-][cH-][c-]1", "values": [{"measurement": "T/C", "setting": "[2]", "value": "91 % of control"}, {"measurement": "T/C", "setting": "[3]", "value": "113 % of control"}, {"measurement": "T/C", "setting": "[4]", "value": "105 % of control"}]}, {"smiles": "C/C=C/C(=O)NCC(C(C)C)/[N+]([O-])=N/O", "note": "(configuration not stated)", "values": [{"measurement": "T/C", "setting": "dose: 6.25 mg/kg/injection, schedule: Q01DX009 (ip), vehicle: saline with Tween-80", "value": "104 % of control"}, {"measurement": "T/C", "setting": "dose: 12.5 mg/kg/injection, schedule: Q01DX009 (ip), vehicle: saline with Tween-80", "value": "116 % of control"}, {"measurement": "T/C", "setting": "dose: 25.0 mg/kg/injection, schedule: Q01DX009 (ip), vehicle: saline with Tween-80", "value": "87 % of control"}]}, {"smiles": "CCCCN(CCCC)CCC(O)c1cc(-c2ccc(Cl)c(Cl)c2)nc2c(Cl)cc(Cl)cc12", "note": "(configuration not stated)", "values": [{"measurement": "T/C", "setting": "[2]", "value": "99 % of control"}, {"measurement": "T/C", "setting": "[3]", "value": "110 % of control"}]}, {"smiles": "Nc1ccc(S(=O)(=O)Nc2ccc(I)cc2)cc1", "values": [{"measurement": "T/C", "setting": "[5]", "value": "90 % of control"}, {"measurement": "T/C", "setting": "dose: 100.0 mg/kg/injection, schedule: Q04DX003 (ip), vehicle: Klucel (hydroxypropylcellulose) (HPC)", "value": "123 % of control"}, {"measurement": "T/C", "setting": "[6]", "value": "104 % of control"}, {"measurement": "T/C", "setting": "dose: 200.0 mg/kg/injection, schedule: Q04DX003 (ip), vehicle: Klucel (hydroxypropylcellulose) (HPC)", "value": "96 % of control"}, {"measurement": "T/C", "setting": "dose: 400.0 mg/kg/injection, schedule: Q01DX009 (ip), vehicle: Klucel (hydroxypropylcellulose) (HPC)", "value": "100 % of control"}, {"measurement": "T/C", "setting": "dose: 400.0 mg/kg/injection, schedule: Q04DX003 (ip), vehicle: Klucel (hydroxypropylcellulose) (HPC)", "value": "92 % of control"}]}]}
